Entries after “also recorded” stand apart in the source; their conditions may differ.
Columns and labels:
[1] = system: DU145 cells; assay: Cell cycle analysis (propidium iodide), SC21, DU145; assay type: cell-based, human; details: 72 hours of exposure, IC50
Method: (§1) FIG. 17 depicts flow cytometric analysis of the cell cycle profiles of DU145, PC3, MDA-MB-435, and HEY cells treated with SC21. […] SC21 induced a G0/G1 phase arrest in DU145 and MDA-MB-435 cells and S phase arrest in PC3 and HEY cells.
Cell cycle perturbations induced by SC21 and camptothecin (CPT) were analyzed by propidium iodide DNA staining. Briefly, exponentially growing PC3 and DU145 cells were treated with different doses of the drug for 24, 48, and 72 hours. At the end of each treatment time, cells were collected and washed with PBS after a gentle centrifugation at 200×g for 5 minutes. Cells were thoroughly resuspended in 0.5 mL of PBS and fixed in 70% ethanol for at least 2 hours at 4° C. Ethanol-suspended cells were then centrifuged at 200×g for 5 minutes and washed twice in PBS to remove residual ethanol. For cell cycle analysis, the pellets were suspended in 1 mL of PBS containing 0.02 mg/mL of propidiumiodide, 0.5 mg/mL of DNase-free RNase A and 0.1% of Triton X-100 and incubated at 37° C. for 30 minutes. Cell cycle profiles were obtained using a FACScan flowcytometer (Becton Dickinson, San Jose, Calif.) and data were analyzed by ModFit LT software (Verity Software House, Inc., Topsham, Me.). […]

[2] = system: HEY cells; assay: Cell cycle analysis (propidium iodide), SC21, HEY; assay type: cell-based, human; details: 72 hours
Method: as §1
(§2) Cell cycle perturbations induced by SC21 and camptothecin (CPT) were analyzed by propidium iodide DNA staining. Briefly, exponentially growing PC3 and DU145 cells were treated with different doses of the drug for 24, 48, and 72 hours. At the end of each treatment time, cells were collected and washed with PBS after a gentle centrifugation at 200×g for 5 minutes. Cells were thoroughly resuspended in 0.5 mL of PBS and fixed in 70% ethanol for at least 2 hours at 4° C. Ethanol-suspended cells were then centrifuged at 200×g for 5 minutes and washed twice in PBS to remove residual ethanol. For cell cycle analysis, the pellets were suspended in 1 mL of PBS containing 0.02 mg/mL of propidiumiodide, 0.5 mg/mL of DNase-free RNase A and 0.1% of Triton X-100 and incubated at 37° C. for 30 minutes. Cell cycle profiles were obtained using a FACScan flowcytometer (Becton Dickinson, San Jose, Calif.) and data were analyzed by ModFit LT software (Verity Software House, Inc., Topsham, Me.).
(§3) It was noteworthy that SC21 induced S phase arrest in PC3 and HEY cell lines (FIG. 17).

[3] = system: DU145 cells; assay: Annexin V/propidium iodide apoptosis assay, DU145; assay type: cell-based, human; details: 72 hours exposure, IC80
Method: FIG. 19 illustrates apoptosis analysis of DU145 cells treated with SC21 or CPT (IC80). Cells were treated with SC21 or CPT for 24, 48, and 72 h, harvested, stained with annexin V/propidium iodide and analyzed by flow cytometry. Untreated control cells (24 and 48 h) were also included in the analysis. Annexin VFITC signals are recorded in FL1-H or […] and propidium iodide in FL2-H or […]. Cells in the bottom left quadrant (annexin V-negative, propidium iodide-negative) are viable, whereas cells in the right quadrant (annexin V-positive, propidium iodide-negative) are in the early stages of apoptosis, and the cells in the top right quadrant (annexin V-positive, propidium iodide-positive) are in later stages of apoptosis and necrosis.
To quantify drug-induced apoptosis, annexin V/propidium iodide staining was done followed by flow cytometry. […] The resulting fluorescence (FLH-1 channel for green fluorescence and FLH-2 channel for red fluorescence) was measured by flow cytometry using a FACScan flow cytometer (Becton Dickinson).
SC21 and CPT-induced apoptosis was measured by flow cytometry (FIG. 18). SC21 at an IC80 dose for 72 hours induced 12% to 15% apoptosis as measured by calculating sub-G0/G1 population. […] This event precedes nuclear breakdown, DNA fragmentation, the appearance of most apoptosis-associated molecules, and is readily measured by annexin V binding assay. […]

[4] = system: PC3 cells; assay: Cell cycle analysis (propidium iodide), SC21, PC3; assay type: cell-based, human; details: 72 hours
Method: as §1, §2, §3

[5] = system: SF-268 CNS cancer cells; assay: Sensitivity of various cancer cells to SC144, SF-268; assay type: cell-based; details: Homo sapiens
Source text: (§4) The studies were expanded to other cell lines. […] Subnanomolar to low nanomolar potency was also observed in HCT-116 and HT29 colon cancer cell lines (Table 2).

[6] = system: HCT-116 colon cancer cells; assay: Sensitivity of various cancer cells to SC144, HCT-116; assay type: cell-based; details: Homo sapiens
Source text: as §4

[7] = system: MDA-MB-435 xenografts; assay: Nude mice xenograft model of human breast MDA-MB-435 cells; assay type: in vivo
Method: FIG. 3. (A) is a schematic outline of tumor growth and dosing in xenograft models. […] Tumor growth was monitored for five weeks. Values represent the median tumor weight for each group.
After five-days of dosing, the drug treatment was discontinued and the animals were monitored bi-weekly for five weeks.
For statistical analysis, the % T/C value was calculated on the last day of dosing and is graphed for all of the treatment groups (FIG. 3C).
To evaluate the extent of tumor necrosis after drug treatment tumor samples were collected from control and treated mice on day 70.

[8] = system: MDA-MB-435 cells; assay: Annexin V/PI apoptosis analysis, SC144 and CPT; assay type: cell-based, human; details: 48 h; IC80
Source text: Cells were stained with annexin V/PI and analyzed by flow cytometry. Cells in the bottom left quadrant of each panel (Annexin V-negative, PI-negative) are viable, whereas cells in the bottom right quadrant (Annexin V-positive, PI-negative) are in the early stages of apoptosis, and cells in the top right quadrant (Annexin V-positive, PI-positive) are in later stages of apoptosis and necrosis.
An early event in apoptotic cell death is the translocation of the phosphatidyl-serine residues to the outer part of the cell membrane. This event precedes nuclear breakdown, DNA fragmentation, the appearance of most apoptosis-associated molecules, and is readily measured by annexin V binding assay. By this method, SC144 was compared with CPT.

[9] = system: UACC-257 melanoma cells; assay: Sensitivity of various cancer cells to SC144, UACC-257; assay type: cell-based; details: Homo sapiens
Source text: as §4

[10] = system: RPMI-8226 leukemia cells; assay: Sensitivity of various cancer cells to SC144, RPMI-8226; assay type: cell-based; details: Homo sapiens
Source text: as §4

[11] = system: HL60 leukemia cells; assay: Sensitivity of various cancer cells to SC144, HL60; assay type: cell-based; details: Homo sapiens, HL-60
Source text: as §4

[12] = system: UACC-62 melanoma cells; assay: Sensitivity of various cancer cells to SC144, UACC-62; assay type: cell-based; details: Homo sapiens
Source text: as §4

| SMILES | cells retained in G0/G1 phase [1] [%] | accumulation in S phase [2] [%] | early plus late apoptotic cells [3] [%] | accumulation in S phase [4] [%] | CC50 [5] [nM] | CC50 [6] [nM] | organ toxicity (H&E staining of kidney, liver, heart tissues) ([7]; 4 mg/kg) | reduced tumor growth ([7]; 4 mg/kg daily i.p. for five days) [%] | necrosis of tumor tissues ([7]; 4 mg/kg, day 70, H&E staining) | tolerability, drug-related deaths ([7]; 0.3, 0.8, 4 mg/kg daily i.p. five days) | body weight compared to vehicle control ([7]; mouse, in vivo) | early-apoptotic cells [8] [%] | late-apoptosis/necrosis [8] [%] | CC50 [9] [nM] | CC50 [10] [nM] | CC50 [11] [nM] | CC50 [12] [nM] |
| --- | --- | --- | --- | --- | --- | --- | --- | --- | --- | --- | --- | --- | --- | --- | --- | --- | --- |
| O=C(NNC(=O)c1ccccc1O)C1=CC2C=CC=CC2C=C1O (centres unmarked) [SC21] | 65 | 69 | 72 | 52 |  |  |  |  |  |  |  |  |  |  |  |  |  |
| O=C(NNc1nc2cc(F)ccc2n2cccc12)c1cnccn1 [SC144, Pyrazine-2-carboxylic acid N′-(7-fluoro-pyrrolo[1,2-a]quinoxalin-4-yl)-hydrazide] |  |  |  |  | 300 | 17 | no damage in these organs; also recorded: does not exhibit organ toxicity | 60 | greater than 80% | well tolerated and did not result in drug-related deaths | no changes in body weight | 37 | 16 | 400 | 250 | 270 | 800 |

Source: patent publication US20110034472A1, “Novel Compounds for Treatment of Cancer and Disorders Associated With Angiogenesis Function” (UNIVERSITY OF SOUTHERN CALIFORNIA, priority 2004, published 2011)
